Laboratory results: PubChem BioAssay AID1963849 (Molecular Pharmacology Branch, DTP, NCI, 2024)
“And” between values parts separate entries of the source, which are not always exact repeats. Equal values may be shown once.

System: 299254-011-R-J1-PDC complex spheroid viability
Assay: Anticancer human tumor 299254-011-R-J1-PDC patient-derived melanoma cell line growth inhibition [POLQ]
Conditions: for viability, T/C: stronger effect = lower value
Procedure: Multicellular complex tumor spheroid response to Polymerase (POL) inhibitors (novobiocin, ART-558, RP6685) in combination with a variety of drugs and investigational agents in selected tumor cell lines
The POL inhibitors (novobiocin, ART-558, and RP6685) were evaluated both individually and in combination with standard of care and investigational anticancer small molecules within a complex spheroid model of solid tumors. . Complex spheroids include a stromal component modeled by human endothelial cells (HUVEC) and fibroblasts modeled by human mesenchymal stem cells (MSCs). The concentration ranges selected for each drug and investigational agent were based upon clinically achievable concentrations if the clinical Cmax of the agent was known.
Compounds. The drugs and investigational agents: novobiocin (NSC847541), ART-558 (NSC835418), RP-6685 (NSC848927), peposertib (NSC802822), ceralasertib (NSC780249), elimusertib (NSC800525), camonsertib (NSC841442), AZD-1390 (NSC803789), olaparib (NSC753686), talazoparib (NSC767125), rucaparib (NSC756644), sotorasib (NSC818433), MRTX-1133 (NSC836407), SN-38 (NSC673596), topotecan (NSC609699), epotoside (NSC141540), doxorubicin (NSC123127), gemcitabine (NSC613327), 5-fluorouracil (NSC19893), paclitaxel (NSC125973), vemurafenib (NSC761431), MSA-2 (NSC828583), SN-011 (NSC837082), adavosertib (NSC754352), prexasertib (NSC758257), carboplatin (NSC241240) and oxaliplatin (NSC266046), were obtained from the National Cancer Institute (NCI) Developmental Therapeutics Program Chemical Repository (21). The FDA-approved anticancer drug set is available from the Developmental Therapeutics Program at https://dtp.cancer.gov/organization/dscb/obtaining/. […] The stock solutions were prepared in dimethyl sulfoxide (DMSO, Sigma-Aldrich, St. Louis, MO, cat. D2650), except for the platinum compounds which were prepared in saline (Quality Biological, Gaithersburg, MD, cat. 114-055-101), at 800-fold the tested concentration and stored at -70 degrees C prior to their use. All drugs and investigational agents were tested over a range starting from a high concentration at or near the clinical Cmax and decreasing in half-log increments. If the clinical Cmax for an agent had not been determined, the highest concentration tested was 10 microM, except for SN-38, which was tested at a high concentration of 1 microM.
Cell Culture. All cells were maintained in an incubator at 37 degrees C and 5% CO2 with 95% humidity. The PDC lines were cultured according to standard operating procedures established by the NCI PDMR (https://pdmr.cancer.gov). Table 3 of the manuscript, lists the cell lines along with the number of the three cell types plated to form the mct-spheroids and media for tumor cell growth. After thawing, all PDC lines, except 997537-175-T-J1-PDC and 415267-285-R-J2-PDC, were cultured in Matrigel-coated flasks prepared with a working solution of 1X Ham's F-12 nutrient mix, without supplementation (Thermo Fisher Scientific, cat. 11765054), 100 U/mL penicillin-streptomycin (Thermo Fisher Scientific, cat. 15140122), and 2.5% Matrigel (Corning Inc., Corning, NY, cat. 354248) for the first three passages. The two PDC lines 997537-175-T-J1-PDC and 415267-285-R-J2-PDC were cultured on uncoated flasks. The 857933-349-R-J2-PDC line was cultured in 6C/Colon 1B media containing advanced DMEM/F-12 (Thermo Fisher Scientific, cat. 12634028), 10 mM HEPES (Thermo Fisher Scientific, cat. 15630080), 1X GlutaMAX supplement (Thermo Fisher Scientific, cat. 35050061), 0.1 mg/mL primocin (InvivoGen, San Diego, CA, cat. ant-pm-2), 10% defined fetal bovine serum, heat inactivated (HyClone Laboratories Inc., Logan, UT, cat. SH30070.03HI), 50% L-WRN conditioned media (ATCC, cat. CRL-3276), 1.25 mM N-Acetyl-L-cysteine (Sigma-Aldrich, cat. A9165), 10 mM nicotinamide (Sigma-Aldrich, cat. N0636), 1X B-27 supplement (Thermo Fisher Scientific, cat. 17504044), 1X N-2 supplement (Thermo Fisher Scientific, cat. […]

[1] = compound alone, run of 11/27/2023
[2] = compound alone, run of 12/05/2023
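Note: spheroids exposed to drugs for one week before measurement.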
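Throughout, for viability, T/C: percent viability relative to DMSO vehicle control taken as 100%.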

Compound	viability, T/C (compound 0.0316 µM)	viability, T/C (compound 0.1 µM)	viability, T/C (compound 0.316 µM)	viability, T/C (compound 1 µM)	viability, T/C (compound 3.16 µM)	viability, T/C (compound 10 µM)	IC50 (curve of compound)	IC50 [1] [nM]	viability, T/C (compound 0.00316 µM)	viability, T/C (compound 0.01 µM)	IC50 [2] [nM]	viability, T/C (compound 0.000316 µM)	viability, T/C (compound 0.001 µM)
CNCc1ccc(-c2[nH]c3cc(F)cc4c3c2CCNC4=O)cc1	117% and 108% and 100%	95.8% and 94.7% and 99.7%	113% and 105% and 97.2%	109% and 96.3% and 92.8%	111% and 113% and 110%	119% and 107% and 109%	> 10000 nM						
COC1C(OC(N)=O)C(O)C(Oc2ccc3c(O)c(NC(=O)c4ccc(O)c(CC=C(C)C)c4)c(=O)oc3c2C)OC1(C)C (stereo not drawn)					102% [middle of 13 runs]			> 10000					
COc1cc(C2c3cc4c(cc3C(OC3OC5COC(C)OC5C(O)C3O)C3COC(=O)C23)OCO4)cc(OC)c1O (stereo not drawn)	101% and 98.9% and 106%	103% and 106% and 84.8%	93.5% and 92.1% and 111%	87.4% and 91.4% and 94.4%	67.7% and 73.7% and 72.5%	53.7% and 56.4% and 62.8%	> 10000 nM						
COc1cc2cc(C(=O)CCC(=O)O)sc2cc1OC	107% and 89.4% and 110%	94.7% and 99.2% and 93.1%	106% and 87.4% and 93.6%	103% and 100% and 97.2%	113% and 103% and 108%	103% and 104% and 101%	> 10000 nM						
COc1ccc([C@@H](O)c2cc(-c3ncnc4cc(N5CCOCC5)ccc34)c(F)cc2Cl)nn1	106% and 102% and 92.9%	86.3% and 91.9% and 94.6%	106% and 96.2% and 105%	94% and 100% and 99%	92.6% and 84.1% and 88.5%	49.3% and 50% and 43.6%	9870 nM and > 10000 nM and 8570 nM						
COc1cccc(OCCCN)c1-c1cc(Nc2cnc(C#N)cn2)n[nH]1	60.5% and 75.7% and 77.2%	52.1% and 57.2% and 56.9%	37.6% and 41.3% and 50.1%	38.9% and 37.3% and 45.4%			78.9 nM and 135 nM and 268 nM		98.2% and 103% (2×)	92.8% and 112% and 96%			
COc1cccc2c1C(=O)c1c(O)c3c(c(O)c1C2=O)CC(O)(C(=O)CO)CC3OC1CC(N)C(O)C(C)O1 (stereo not drawn)	83.7% and 89.6% and 90%	80.1% and 91.1% and 93.3%	69.1% and 73.4% and 55.2%	59% and 60.7% and 46%	9.86% and 15.5% and 12%	0.74% and 1.67% and 3.35%	1190 nM and 1200 nM and 612 nM						
Cc1cccc(N(C)C(=O)C2C(O)CCN2c2nc(C)cc(C(F)(F)F)c2C#N)c1 (stereo not drawn)	102% [middle of 13 runs]	103% [middle of 13 runs]	102% [middle of 13 runs]	103% [middle of 13 runs]	97.3% [middle of 13 runs]			> 10000			> 10000		
Cn1ncnc1[C@H]1c2n[nH]c(=O)c3cc(F)cc(c23)N[C@@H]1c1ccc(F)cc1	128% and 92.6% and 95.2%	101% (2×) and 99.2%					> 100 nM		110% and 111% and 116%	124% and 107% and 98.2%		107% and 92.2% and 97.5%	108% and 87.9% and 99%
Nc1ccc(C#CCN(C(=O)Cc2ncc(C(F)(F)F)cc2C(F)(F)F)c2ccc(F)cc2)nn1	102% [middle of 13 runs]	104% [middle of 13 runs]	102% [middle of 13 runs]	96.5% [middle of 13 runs]	96.5% [middle of 13 runs]	95.6% [middle of 13 runs]					> 10000		
Nc1ccn(C2OC(CO)C(O)C2(F)F)c(=O)n1 (stereo not drawn)	73.4% and 61.2% and 61%	37.7% and 47.8% and 35.1%	42.1% and 40.7% and 40.9%	40.9% and 50.7% and 30.8%	37.9% and 48.4% and 41.9%	41.2% and 42.5% and 33.8%	70.8 nM and 78.8 nM and 53 nM						
O=C(Nc1ccc(O)c(NS(=O)(=O)c2ccc(F)cc2)c1)c1ccc(-c2ccccc2)cc1	93.4% and 116% (2×)	99.8% and 93% and 108%	110% and 99.2% and 96.8%	91.6% and 92.6% and 111%	111% and 88.9% and 86.7%	52% and 54.8% and 46.6%	> 10000 nM and 9060 nM						
O=C(c1cc(Cc2n[nH]c(=O)c3ccccc23)ccc1F)N1CCN(C(=O)C2CC2)CC1	94.4% and 93.8% and 100%	101% and 83.9% and 107%	98.9% and 81.6% and 109%	97.1% and 85.2% and 89.6%	98.6% and 94.9% and 100%	88.7% and 80.5% and 96.8%	> 10000 nM						
O=c1[nH]cc(F)c(=O)[nH]1	95.9% and 94% and 105%	103% and 102% and 106%	105% and 118% and 103%	96.4% and 103% and 93.8%	90.9% and 85.9% and 98.6%	74.2% and 79.7% and 81.9%	> 10000 nM						
